Source: US20180085452A1, “MATRIX-EMBEDDED TOLERANCE-PROMOTING ADJUVANTS FOR SUBCUTANEOUS IMMUNOTHERAPY” (Tolerogenics S.a.r.l,, priority 2016, published 2018)
≈ marks a conversion by molar mass, not a printed value. Where “and” joins values, the source holds several entries; their conditions need not be identical. Identical values can stand only once. Entries after “also recorded” stand apart in the source; their conditions may differ. Like-named read-outs stand apart in the source and are kept apart here. Each block holds one compound with its values, some of them ahead of it.

Assays:
[1] = cited from earlier work
[2] = in vitro release of DexP from PLGA-PEG-PLGA hydrogel; type: physicochemical; conditions: 37° C., PBS
Experimental: A 20 mM stock solution of DexP in PBS (10.3 mg/ml; MW 516.4; Sigma-Aldrich) is diluted 1:40 in PBS (final concentration: 0.5 mM), and 20 μl of the diluted stock solution is combined with 160 μl of 25% gel solution and 20 μl of 10× PBS (final concentration of DexP: 0.05 mM).
The mixture of is incubated for 2 minutes at 37° C. to induce gelling and overlayed with 200 μl of 1× PBS. At frequent time points the supernatant is removed by pipetting and stored at 4° C. The removed supernatant is replaced by fresh 200 μl of 1× PBS. Controls of the same concentration of DexP in 1× PBS without gel are incubated and sampled in parallel.
Released DexP is determined with a spectrophotometric method (Singh and Verma, 2008). The method involves oxidation of the corticosteroid by iron (III) and subsequent complexation of iron (II) with potassium hexacynoferate (III), forming a bluish green coloured complex with maximum absorbance at 780 nm (Beer's law range: 10-50 μg/ml; molar absorptivity (M^−1cm^−1): for DexP 0.55×10^4).

[3] = cited from earlier work; remark: listed apart in the source
patients with RA = conditions: placebo 22.0%, cited from earlier work
rheumatoid arthritis [4] = conditions: placebo 29.2%, cited from earlier work
[5] = cited from earlier work; remark: listed apart in the source
calcium metabolism = conditions: in vivo studies in rats; cited from earlier work
rats = conditions: cited from earlier work
[6] = cited from earlier work; remark: listed apart in the source
[7] = rodents; cited from earlier work
[8] = cited from earlier work; remark: listed apart in the source
phagocytes = conditions: approximately a threefold increase; cited from earlier work
[9] = during the first 24 hours; EP14075015.9; cited from earlier work
rheumatoid arthritis [10] = tested on: rheumatoid arthritis; parameters: patients going into remission: dose or concentration left out as unconfirmed; conditions: on methotrexate therapy, cited from earlier work
type 1 diabetes = conditions: cited from earlier work
[11] = tested on: TNFR1-mediated activation of NF-κB; conditions: cited from earlier work
mice = conditions: cited from earlier work
[12] = tested on: experimental autoimmune encephalomyelitis (EAE); conditions: i.p. 5 μg/kg body weight every 2 days; cited from earlier work
[13] = cited from earlier work; remark: listed apart in the source

Compound: C[C@@H]1CCN(C(=O)CC#N)C[C@@H]1N(C)c1ncnc2[nH]ccc12 [free base of tofacitinib, tofacitinib]
- solubility in DMSO ([1]; DMSO): 100 mg/mL (≈ 320 mM)
- solubility in ethanol [1]: 100 mg/mL (≈ 320 mM)
- maximum solubility in plain water ([1]; plain water, estimated): 10-20 μM and 3.12-6.24 μg/ml

- hydrogel-embedded DexP released ([2]; after 2 days): 80-90%
- hydrogel-embedded DexP released ([2]; within the first 6 hours): 30-50%
Compound: C[C@@H]1C[C@H]2[C@@H]3CCC4=CC(=O)C=C[C@]4(C)[C@@]3(F)[C@@H](O)C[C@]2(C)[C@@]1(O)C(=O)COP(=O)(O)O [DexP, dexamethasone sodium phosphate]

Compound: C[C@@H]1CCN(C(=O)CC#N)C[C@@H]1N(C)c1ncnc2[nH]ccc12 [tofacitinib]
- in vivo half-life [3]: 2 to 3 h
- ACR20 response at week 12 (patients with RA; 3 mg orally twice a day): 39.2%
- ACR20 response at week 12 (patients with RA; 5 mg orally twice a day): 59.2%
- ACR20 response at week 12 (patients with RA; 10 mg orally twice a day): 70.5%
- ACR20 response at week 12 (patients with RA; 15 mg orally twice a day): 71.9%
- ACR20 response rate by week 6 (rheumatoid arthritis [4]; 5 mg twice daily): 70.5%
- ACR20 response rate by week 6 (rheumatoid arthritis [4]; 15 mg twice daily): 81.2%
- ACR20 response rate by week 6 (rheumatoid arthritis [4]; 30 mg twice daily): 76.8%

Compound: C=C1/C(=C\C=C2/CCC[C@]3(C)[C@@H]([C@H](C)/C=C/[C@@H](O)C4CC4)CC[C@@H]23)C[C@@H](O)C[C@@H]1O [calcipotriol]
- applied dose absorbed systemically ([5]; ointment applied to normal skin): ~5%
- applied dose absorbed systemically ([5]; ointment applied topically to psoriasis plaques): approximately 6%
- effect on calcium metabolism, times less than calcitriol (calcium metabolism): 100-200 times
- single s.c. dose up to which no death occurred (rats): ≤ 540 μg/kg body weight
- rate of clearance, times higher than for calcitriol ([6]; rat, in vivo): approximately 140 times
- half-life in circulation (serum half-life) ([6]; rats): 4 min

Compound: C=C1CC[C@H](O)C/C1=C/C=C1\CCC[C@]2(C)[C@@H]([C@H](C)CCCC(C)(C)O)CC[C@@H]12 [calcidiol, 25-hydroxyvitamin D3]
- plasma concentrations tolerated with normo-calcemia [7]: 250 to 1000 nM
- plasma concentration that can produce vitamin D toxicity ([8]; Jones (2008)): above 0.75 μM; also recorded: approx. 300 ng/ml
- calcidiol level at which toxicity occurs ([8]; Shephard and DeLuca (1980)): ≥ 500 ng/ml and approx. 1.25 μM

Compound: Nc1ncnc2c1ncn2[C@@H]1O[C@H](COP(=O)(O)OP(=O)(O)OP(=O)(O)O)[C@@H](O)[C@H]1O [ATP]
- concentration effecting maximal migration of phagocytes (phagocytes): about 100 nM
- solubility in ethanol ([1]; 25° C.): less than 1 mg/ml
- released from the hydrogel [9]: approx. 60%

Compound: C=C1/C(=C\C=C2/CCC[C@]3(C)[C@@H]([C@H](C)CCCC(C)C)CC[C@@H]23)C[C@@H](O)C[C@@H]1O [alfacalcidiol]
- patients with improvement of disease activity (rheumatoid arthritis [10]; 2 pg/day for 3 months): 89%
- patients going into remission (rheumatoid arthritis [10]; for 3 months): 45%

Compound: O=c1ccn([C@@H]2O[C@H](COP(=O)(O)OP(=O)(O)OP(=O)(O)O)[C@@H](O)[C@H]2O)c(=O)[nH]1 [UTP]
- concentration effecting maximal migration of phagocytes (phagocytes): about 100 nM
- released from the hydrogel [9]: approx. 60%

Compound: vitamin D
- relative risk of type 1 diabetes over the subsequent 30 years (type 1 diabetes; doses of exactly 50 μg/day): 0.22
- relative risk of type 1 diabetes over the subsequent 30 years (type 1 diabetes; doses of over 50 μg/day (2000 IU/d) during infancy): 0.14

Compound: O=C([O-])c1ccccc1O.[Na+] [sodium salicylate]
- dose required for inhibition of TNFR1-mediated activation of NF-κB [11]: 10 to 20 mM

Compound: C=C1/C(=C\C=C2/CCC[C@]3(C)[C@@H]([C@H](C)CCCC(C)(C)O)CC[C@@H]23)C[C@@H](O)C[C@@H]1O [calcitriol, 1α,25-dihydroxyvitamin D3]
- solubility in a 1:5 solution of ethanol:PBS ([1]; 1:5 ethanol:PBS, pH 7.2): approx. 0.15 mg/ml
- dose that can be administered as a single bolus i.p. injection (mice; in 0.2 ml of normal saline): up to 500 ng/mouse
- dose above which mice can become hypercalcemic on day 2 or day 3 (mice; single bolus i.p.): higher than 750 ng/mouse
- treated mice in which appearance of paralysis was prevented [12]: 70%
- single oral dose relatively well tolerated (only grade 1 to 2 adverse events) [13]: up to 165 μg
